In brackets after ≈: the same amount, converted by molar mass.

This note sets out measurements from patent publication US9149536B2, “Conjugated antimicrobial agents” (priority 2009, dated 2015).

The test system of one experiment is E. coli ATCC 25922. As to the kind of experiment: MIC, double-microdilution, E. coli ATCC 25922. Particulars: Table 4. The class given is cell-based, Escherichia coli. For orientation: In broth dilution the organism is exposed to a series of concentrations in liquid medium.
The test system of another experiment is E. coli AG100B. Nature of the experiment: MIC, double-microdilution, E. coli AG100B. The class given is cell-based, Escherichia coli. Particulars: Table 4; kanamycin resistant, APH(3′)-I. An excerpt:
AG100B and AG100A are two kanamycin resistant Escherichia coli strains expressing APH(3′)-I aminoglycoside resistance enzyme.

In a further experiment the test system is E. coli R477-100. Nature of the experiment: MIC, double-microdilution, E. coli R477-100. The class given is cell-based, Escherichia coli. As to conditions: Table 4.
For a further experiment, the system named is E. coli AG100A. As to the kind of experiment: MIC, double-microdilution, E. coli AG100A. The class given is cell-based, Escherichia coli. Particulars: Table 4; kanamycin resistant, APH(3′)-I.
Another experiment concerns MRSA ATCC 43300. As to the kind of experiment: microbe, parasite or virus in culture. Format: cell-based, S. aureus. Particulars: Table 4.
The test system of a further experiment is B. subtilis ATCC 6633. Nature of the experiment: MIC, double-microdilution, B. subtilis ATCC 6633. As to conditions: Table 4. Format: cell-based.

Regarding `NCC1OC(OC2C(C(=O)NCc3cn(CCOCCN4CCN(c5cc6c(cc5F)c(=O)c(C(=O)O)cn6C5CC5)CC4)nn3)OC(OC3C(O)C(N)CC(N)C3OC3OC(CN)C(O)C(O)C3N)C2O)C(N)C(O)C1O` (stereo not drawn) [Compound 1n, N-((1-(2-(2-(ciprofloxacin)ethoxy)ethyl)-1H-1,2,3-triazol-4-yl)-5″-methyl)neomycin carboxamide], the “MIC E. coli ATCC 25922” value against E. coli ATCC 25922 stood at 6 mg/L (≈ 5.4 µM). Moreover, the “MIC E. coli AG100B” value in the experiment on E. coli AG100B came to 12 mg/L (≈ 10.8 µM). The “MIC E. coli R477-100” value with E. coli R477-100 came to 12 mg/L (≈ 10.8 µM). For the same compound, in the experiment with E. coli AG100A, the “MIC E. coli AG100A” value turned out to be 1.5 mg/L (≈ 1.35 µM). Also, the “MIC MRSA ATCC 43300” value in the experiment with MRSA ATCC 43300 came to 24 mg/L (≈ 21.6 µM). Also, the “MIC B. subtilis ATCC 6633” value against B. subtilis ATCC 6633 stood at 12 mg/L (≈ 10.8 µM).

Regarding `NCC1OC(OC2C(C(=O)Nc3ccc(-c4cn(CCN5CCN(c6cc7c(cc6F)c(=O)c(C(=O)O)cn7C6CC6)CC5)nn4)cc3)OC(OC3C(O)C(N)CC(N)C3OC3OC(CN)C(O)C(O)C3N)C2O)C(N)C(O)C1O` (stereo not drawn) [Compound 1a, N-(4-(1-(2-(ciprofloxacin)ethyl)-1H-1,2,3-triazol-4-yl)-5″-phenyl)neomycin], the “MIC E. coli ATCC 25922” value in the experiment on E. coli ATCC 25922 was 6 mg/L (≈ 5.32 µM). Besides, the “MIC E. coli AG100B” value with E. coli AG100B was 24 mg/L (≈ 21.3 µM). In addition, the “MIC E. coli R477-100” value with E. coli R477-100 amounted to 12 mg/L (≈ 10.6 µM). Also, the “MIC E. coli AG100A” value against E. coli AG100A is 0.75 mg/L (≈ 0.665 µM). The “MIC MRSA ATCC 43300” value against MRSA ATCC 43300 was 48 mg/L (≈ 42.5 µM). For the same compound, in the experiment with B. subtilis ATCC 6633, the “MIC B. subtilis ATCC 6633” value amounted to 6 mg/L (≈ 5.32 µM).

For the compound `NCC1OC(OC2C(C(=O)Nc3ccc(-c4cn(CCCCCCN5CCN(c6cc7c(cc6F)c(=O)c(C(=O)O)cn7C6CC6)CC5)nn4)cc3)OC(OC3C(O)C(N)CC(N)C3OC3OC(CN)C(O)C(O)C3N)C2O)C(N)C(O)C1O` (stereo not drawn) [Compound 1e, N-(4-(1-(2-(ciprofloxacin)hexyl)-1H-1,2,3-triazol-4-yl)-5″-phenyl)neomycin carboxamide], the “MIC E. coli ATCC 25922” value with E. coli ATCC 25922 was determined as 6 mg/L (≈ 5.07 µM). Also, the “MIC E. coli AG100B” value against E. coli AG100B turned out to be 12 mg/L (≈ 10.1 µM). Besides, the “MIC E. coli R477-100” value in the experiment on E. coli R477-100 came out at 6 mg/L (≈ 5.07 µM). For the same compound, the “MIC E. coli AG100A” value in the experiment with E. coli AG100A worked out at 1.5 mg/L (≈ 1.27 µM). In addition, the “MIC MRSA ATCC 43300” value against MRSA ATCC 43300 is 48 mg/L (≈ 40.5 µM). For the same compound, the “MIC B. subtilis ATCC 6633” value in the experiment on B. subtilis ATCC 6633 is 12 mg/L (≈ 10.1 µM).

Regarding `NCC1OC(OC2C(C(=O)Nc3ccc(-c4cn(CCOCCN5CCN(c6cc7c(cc6F)c(=O)c(C(=O)O)cn7C6CC6)CC5)nn4)cc3)OC(OC3C(O)C(N)CC(N)C3OC3OC(CN)C(O)C(O)C3N)C2O)C(N)C(O)C1O` (stereo not drawn) [Compound 1g, N-(4-(1-(2-(2-(ciprofloxacin)ethoxy)ethyl)-1H-1,2,3-triazol-4-yl)-5″-phenyl)neomycin carboxamide], the “MIC E. coli ATCC 25922” value in the experiment with E. coli ATCC 25922 was determined as 12 mg/L (≈ 10.2 µM). The “MIC E. coli AG100B” value against E. coli AG100B was found to be 12 mg/L (≈ 10.2 µM). The “MIC E. coli R477-100” value against E. coli R477-100 turned out to be 24 mg/L (≈ 20.5 µM). The “MIC E. coli AG100A” value with E. coli AG100A was 1.5 mg/L (≈ 1.28 µM). Moreover, in the experiment on MRSA ATCC 43300, the “MIC MRSA ATCC 43300” value stood at 24 mg/L (≈ 20.5 µM). Besides, the “MIC B. subtilis ATCC 6633” value in the experiment on B. subtilis ATCC 6633 was 12 mg/L (≈ 10.2 µM).

With `NCC1OC(OC2C(C(=O)NCc3cn(CCN4CCN(c5cc6c(cc5F)c(=O)c(C(=O)O)cn6C5CC5)CC4)nn3)OC(OC3C(O)C(N)CC(N)C3OC3OC(CN)C(O)C(O)C3N)C2O)C(N)C(O)C1O` (stereo not drawn) [Compound 1j, N-((1-(4-(ciprofloxacin)ethyl)-1H-1,2,3-triazol-4-yl)-5″-methyl)neomycin carboxamide], the “MIC E. coli ATCC 25922” value against E. coli ATCC 25922 came to 6 mg/L (≈ 5.63 µM). For the same compound, in the experiment on E. coli AG100B, the “MIC E. coli AG100B” value came out at 12 mg/L (≈ 11.3 µM). Also, the “MIC E. coli R477-100” value with E. coli R477-100 is 12 mg/L (≈ 11.3 µM). For the same compound, the “MIC E. coli AG100A” value with E. coli AG100A was 1.5 mg/L (≈ 1.41 µM). Besides, in the experiment on MRSA ATCC 43300, the “MIC MRSA ATCC 43300” value turned out to be 24 mg/L (≈ 22.5 µM). For the same compound, the “MIC B. subtilis ATCC 6633” value in the experiment with B. subtilis ATCC 6633 came out at 3 mg/L (≈ 2.81 µM).

Consider “N-(4-(1-(4-((ciprofloxacin)methyl)benzyl)-1H-1,2,3-triazol-4-yl)-5″-phenyl)neomycin carboxamide [Compound 1h]”, for which, in the experiment on E. coli ATCC 25922, the “MIC E. coli ATCC 25922” value is 12 mg/L. In addition, the “MIC E. coli AG100B” value against E. coli AG100B amounted to 12 mg/L. For the same compound, the “MIC E. coli R477-100” value against E. coli R477-100 was found to be 6 mg/L. In the experiment with E. coli AG100A, the “MIC E. coli AG100A” value came out at 1.5 mg/L. For the same compound, the “MIC MRSA ATCC 43300” value against MRSA ATCC 43300 is 12 mg/L. In addition, the “MIC B. subtilis ATCC 6633” value in the experiment with B. subtilis ATCC 6633 stood at 6 mg/L.

On to `NCC1OC(OC2C(C(=O)Nc3ccc(-c4cn(CCCCCN5CCN(c6cc7c(cc6F)c(=O)c(C(=O)O)cn7C6CC6)CC5)nn4)cc3)OC(OC3C(O)C(N)CC(N)C3OC3OC(CN)C(O)C(O)C3N)C2O)C(N)C(O)C1O` (stereo not drawn) [Compound 1d, N-(4-(1-(2-(ciprofloxacin)pentyl)-1H-1,2,3-triazol-4-yl)-5″-phenyl)neomycin carboxamide], for which the “MIC E. coli ATCC 25922” value in the experiment with E. coli ATCC 25922 was found to be 6 mg/L (≈ 5.13 µM). In addition, the “MIC E. coli AG100B” value in the experiment on E. coli AG100B is 24 mg/L (≈ 20.5 µM). Moreover, the “MIC E. coli R477-100” value in the experiment with E. coli R477-100 was determined as 12 mg/L (≈ 10.3 µM). In addition, the “MIC E. coli AG100A” value with E. coli AG100A is 1.5 mg/L (≈ 1.28 µM). In addition, the “MIC MRSA ATCC 43300” value with MRSA ATCC 43300 was 48 mg/L (≈ 41 µM). In the experiment on B. subtilis ATCC 6633, the “MIC B. subtilis ATCC 6633” value was 12 mg/L (≈ 10.3 µM).
